Legend:
human σ1 receptor = target: T1, human σ1 receptor (Homo sapiens, UniProt Q99720); assay: Human σ1 receptor radioligand assay ([3H](+)-pentazocine, transfected HEK-293 membranes); conditions: class scale, read-out: Binding σ-1 Ki
T1 construct: expressed in transfected cells; host or cells: HEK-293
Outline: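 Membranes (7 μg) from transfected HEK-293 cells were incubated with 5 nM [3H](+)-pentazocine in 50 mM Tris-HCl, pH 8, for 120 minutes at 37° C, with 10 μM haloperidol defining non-specific binding. Bound radioactivity was filtered and counted by scintillation. Results are % inhibition at 1 or 10 μM or Ki from five concentrations.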

human σ2/TMEM97 receptor = target: T2, human σ2/TMEM97 receptor (Homo sapiens, UniProt Q5BJF2); assay: Binding assay to human σ2/TMEM97 receptor ([3H]-DTG, transfected HEK-293 membranes); conditions: class scale, read-out: Binding σ-2 Ki
T2 construct: expressed in transfected cells; host or cells: HEK-293
Outline: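 Membranes (15 μg) from transfected HEK-293 incubated 120 min at 25 °C with 10 nM [3H]-DTG in 50 mM Tris-HCl pH 8.0; nonspecific binding with 10 μM haloperidol. Filtration and scintillation counting; % inhibition at 1 or 10 μM, or Ki from five concentrations.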

T2 sequence (Q5BJF2 whole entry): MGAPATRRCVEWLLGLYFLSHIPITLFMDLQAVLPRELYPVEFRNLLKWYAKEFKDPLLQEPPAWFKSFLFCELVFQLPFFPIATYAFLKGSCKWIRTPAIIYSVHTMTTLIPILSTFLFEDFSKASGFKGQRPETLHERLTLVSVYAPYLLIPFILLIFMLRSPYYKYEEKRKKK
T1 sequence (Q99720 whole entry): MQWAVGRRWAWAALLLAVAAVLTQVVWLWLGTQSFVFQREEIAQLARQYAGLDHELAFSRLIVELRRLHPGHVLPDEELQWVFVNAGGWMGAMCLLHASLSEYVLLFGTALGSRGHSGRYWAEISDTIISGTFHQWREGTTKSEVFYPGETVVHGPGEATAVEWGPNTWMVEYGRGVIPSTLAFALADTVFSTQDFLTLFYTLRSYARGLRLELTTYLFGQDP

Compound | Ki (human σ1 receptor) | Ki (human σ2/TMEM97 receptor)
Cc1cc(-c2nn(C)c(Cl)c2C(=O)N2CCCC3(CCN(Cc4ccccc4)CC3)C2)no1 [Example 156, (9-Benzyl-2,9-diazaspiro[5.5]undecan-2-yl)(5-chloro-1-methyl-3-(5-methylisoxazol-3-yl)-1H-pyrazol-4-yl)methanone] | 100 to 500 nM | < 100 nM
Cc1cc(-c2nn(C)c(Cl)c2C(=O)N2CCCC3(CCN(CC(C)(C)C)CC3)C2)no1 [Example 157, (5-Chloro-1-methyl-3-(5-methylisoxazol-3-yl)-1H-pyrazol-4-yl)(9-neopentyl-2,9-diazaspiro[5.5]undecan-2-yl)methanone] | > 1000 nM | < 100 nM
CCn1nc(-c2cc(C)on2)c(C(=O)NCCC2CCN(CCC(C)(C)C)CC2)c1Cl [Example 158, 5-Chloro-N-(2-(1-(3,3-dimethylbutyl)piperidin-4-yl)ethyl)-1-ethyl-3-(5-methylisoxazol-3-yl)-1H-pyrazole-4-carboxamide] | 100 to 500 nM | < 100 nM
CCn1nc(-c2cc(C)on2)c(C(=O)NC2CCN(CCC(C)(C)C)CC2)c1Cl [Example 159, 5-Chloro-N-(1-(3,3-dimethylbutyl)piperidin-4-yl)-1-ethyl-3-(5-methylisoxazol-3-yl)-1H-pyrazole-4-carboxamide] | < 100 nM | < 100 nM
CCn1nc(-c2cc(C)on2)c(C(=O)NC2CCCN(CCC(C)(C)C)CC2)c1Cl (stereo not drawn) [Example 160, 5-Chloro-N-(1-(3,3-dimethylbutyl)azepan-4-yl)-1-ethyl-3-(5-methylisoxazol-3-yl)-1H-pyrazole-4-carboxamide] | < 100 nM | < 100 nM
CCn1nc(-c2cccc(C(F)(F)F)n2)c(C(=O)NC2CCN(CCC(C)(C)C)CC2)c1Cl [Example 161, 5-Chloro-N-(1-(3,3-dimethylbutyl)piperidin-4-yl)-1-ethyl-3-(6-(trifluoromethyl)pyridin-2-yl)-1H-pyrazole-4-carboxamide] | < 100 nM | < 100 nM
CCn1nc(-c2cc(C(C)C)on2)c(C(=O)NC2CCN(CCC(C)(C)C)CC2)c1Cl [Example 162, 5-Chloro-N-(1-(3,3-dimethylbutyl)piperidin-4-yl)-1-ethyl-3-(5-isopropylisoxazol-3-yl)-1H-pyrazole-4-carboxamide] | < 100 nM | < 100 nM

More lines, now with the values ahead:

Ki (human σ1 receptor) | Ki (human σ2/TMEM97 receptor) | Compound
100 to 500 nM | < 100 nM | CCn1nc(-c2ccon2)c(C(=O)NC2CCN(CCC(C)(C)C)CC2)c1Cl [Example 163, 5-Chloro-N-(1-(3,3-dimethylbutyl)piperidin-4-yl)-1-ethyl-3-(isoxazol-3-yl)-1H-pyrazole-4-carboxamide]
< 100 nM | 100 to 500 nM | CCn1nc(-c2cc(C)on2)c(C(=O)N[C@H]2CCN(CCC(C)(C)C)C2)c1Cl [Example 164, (S)-5-Chloro-N-(1-(3,3-dimethylbutyl)pyrrolidin-3-yl)-1-ethyl-3-(5-methylisoxazol-3-yl)-1H-pyrazole-4-carboxamide]
< 100 nM | < 100 nM | CCn1nc(-c2cc(C)on2)c(C(=O)N[C@@H]2CCN(CCC(C)(C)C)C2)c1Cl [Example 165, (R)-5-Chloro-N-(1-(3,3-dimethylbutyl)pyrrolidin-3-yl)-1-ethyl-3-(5-methylisoxazol-3-yl)-1H-pyrazole-4-carboxamide]
100 to 500 nM | < 100 nM | Cc1cc(-c2nn(C)c(Cl)c2C(=O)NC2CCN(CCC(C)(C)C)CC2)no1 [Example 166, 5-Chloro-N-(1-(3,3-dimethylbutyl)piperidin-4-yl)-1-methyl-3-(5-methylisoxazol-3-yl)-1H-pyrazole-4-carboxamide]
< 100 nM | < 100 nM | Cn1nc(-c2cccc(C(F)(F)F)n2)c(C(=O)NC2CCN(CCC(C)(C)C)CC2)c1Cl [Example 167, 5-Chloro-N-(1-(3,3-dimethylbutyl)piperidin-4-yl)-1-methyl-3-(6-(trifluoromethyl)pyridin-2-yl)-1H-pyrazole-4-carboxamide]
